Test results reported in US11040019B2, “Selective estrogen-receptor modulators (SERMs) confer protection against photoreceptor degeneration” (THE UNITED STATES OF AMERICA, as represented by the …, priority 2016, dated 2021).

Test system: 661W photoreceptors
Assay: Microglia-photoreceptor interaction assay: 661W viability (MTT) in conditioned media of LPS-stimulated BV2 microglia
Settings: BV2 pre-treated before LPS 50 ng/ml; 661W exposed 24 h; TMX 3 and 5 μg/ml, raloxifene 0.3-3 μM, G-1 1 μM, GPR30 antagonist 100 nM
Protocol: 661W photoreceptors cultured in 96-well plate (4×10^4 cells/well) were exposed to conditioned media from LPS-stimulated (50 ng/ml) BV2 microglia (cultured in 6-well plate with a cell density of 4×10^5 cells/well) for 48 h. […] Cell viability of 661W photoreceptors were assessed using a MTT assay.
Murine microglial cell line (BV-2) cells and photoreceptor-like cell line (661W) were used in this study. BV-2 cells were plated in 6-well plates at the density of 4×10^5/well and cultured for 24 h in DMEM medium (Life Technologies Corporation, Grand Island, N.Y.) containing 5% heat inactivated FBS (Life Technologies Corporation, Grand Island, N.Y.) at 37° C. in a humidified atmosphere of 5% CO2. […] Cell viability of 661W photoreceptors were assessed using a MTT cell proliferation assay kits (ATCC, Manassas, Va.) following the manufacturer's specifications. […]
661W photoreceptors cultured in 96-well plate (4×10^4 cells/well) were exposed to conditioned media from LPS-stimulated (50 ng/ml) BV2 microglia (cultured in 6-well plate with a cell density of 4×10^5 cells/well) for 24 h. […] Cell viability of 661W photoreceptors were assessed using a MTT assay.

| SMILES | neurotoxicity of microglia-conditioned media to 661W photoreceptors (viability, MTT) |
| --- | --- |
| CC(=O)c1ccc2c(c1)C1C=CCC1C(c1cc3c(cc1Br)OCO3)N2 (centres unmarked) [G-1] | significantly reduced neurotoxicity |
| O=C(c1ccc(OCCN2CCCCC2)cc1)c1c(-c2ccc(O)cc2)sc2cc(O)ccc12 [raloxifene, [6-hydroxy-2-(4-hydroxyphenyl)-benzothiophen-3-yl]-[4-[2-(1-piperidyl)ethoxy]phenyl]-methanone] | significantly reduced neurotoxicity |
